The target of test [1] is T1, mutant MGL (mut-MGLL 11-313 L179S L186S) (Homo sapiens, UniProt Q99685, L169S/L176S).
T1 construct: purified mutant MGL (mut-MGLL 11-313 L179S L186S)
T1 sequence (Q99685 1-303 L169S/L176S): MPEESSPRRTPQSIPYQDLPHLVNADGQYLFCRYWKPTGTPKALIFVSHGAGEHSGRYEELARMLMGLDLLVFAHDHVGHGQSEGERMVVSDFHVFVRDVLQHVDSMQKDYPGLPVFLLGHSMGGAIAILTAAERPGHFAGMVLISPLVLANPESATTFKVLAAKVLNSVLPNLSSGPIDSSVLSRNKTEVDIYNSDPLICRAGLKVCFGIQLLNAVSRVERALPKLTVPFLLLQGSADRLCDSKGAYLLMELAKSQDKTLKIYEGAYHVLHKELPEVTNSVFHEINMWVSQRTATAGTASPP
The test is described as follows: MGL Enzyme Activity Assay, purified mutant MGL, 4MU-B substrate. The format is biochemical. As to conditions: mutant MGL 5 nM, 4MU-B 10 μM, 37° C.; read-out: MGL mutant inh IC50. The essentials: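 Purified mutant MGL (5 nM final) with 10 μM 4MU-B in 20 mM PIPES pH 7.0, 150 mM NaCl, 0.001% Tween 20; compounds 17 to 0.0003 μM final. Fluorescence (ex 335/em 440 nm) followed 5 min at 37 °C; IC50 from fit of fractional activity versus inhibitor concentration.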

In test [2] the target is T2, wild type MGL (wt-MGLL 6H-11-313) (Homo sapiens, UniProt Q99685).
T2 construct: purified wild type MGL (wt-MGLL 6H-11-313); 6H (hexahistidine) (N)
T2 sequence (Q99685 1-303): T1 sequence (Q99685 1-303 L169S/L176S) with S169L, S176L
The test is described as follows: MGL Enzyme Activity Assay, purified wild type MGL, 4MU-B substrate. The format is biochemical. The note with it: wild type MGL 5 nM, 4MU-B 10 μM, 37° C.; read-out: MGL wild type inh IC50. The protocol:
All rate-based assays were performed in black 384-well polypropylene PCR microplates (Abgene) in a total volume of 30 μL. […] Final compound concentrations ranged from 17 to 0.0003 μM.
The IC50 values for the following compounds were determined using Microsoft Office Excel from a fit of the equation to the concentration-response plot of the fractional activity as a function of inhibitor concentration.

The target of another test is T3, MGL (Rattus norvegicus, UniProt Q8R431).
T3 construct: one g rat brain was homogenized using a Polytron homogenizer; from tissue; host or cells: rat brain homogenate
T3 sequence (Q8R431 1-303): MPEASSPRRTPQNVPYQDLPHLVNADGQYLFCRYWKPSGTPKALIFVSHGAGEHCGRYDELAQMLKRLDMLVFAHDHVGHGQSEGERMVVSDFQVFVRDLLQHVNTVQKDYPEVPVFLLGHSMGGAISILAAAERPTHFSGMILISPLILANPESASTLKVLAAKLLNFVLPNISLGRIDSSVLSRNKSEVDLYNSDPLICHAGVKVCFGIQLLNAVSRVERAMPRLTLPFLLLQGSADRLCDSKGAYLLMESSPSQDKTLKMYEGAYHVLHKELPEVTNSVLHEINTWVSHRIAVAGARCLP
The test is described as follows: 2-AG Accumulation Assay in rat brain homogenate. The format is biochemical. As to conditions: percent of vehicle; for activity at 1 µM: compound @1 µM, read-out: Rat Brain 2AG % VehCntrl (%) @1 µM; for activity at 10 µM: compound @10 µM, read-out: Rat Brain 2AG % VehCntrl (%) @10 µM.

In a further test the target is T4, mutant MGL (Homo sapiens, UniProt Q99685, L169S/L176S).
T4 construct: purified mutant MGL (mut-MGLL 11-313 L179S L186S)
T4 sequence (Q99685 1-303 L169S/L176S): T1 sequence (Q99685 1-303 L169S/L176S)
The test is described as follows: MGL ThermoFluor Assay - Mutant. The format is binding. As to conditions: 0.07 mg/ml mutant MGL, 100 μM ANS, pH 7.0. The essentials:
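Thermal-shift binding with 0.07 mg/ml L169S/L176S mutant MGL, 100 μM 1,8-ANS, 200 mM NaCl, 0.001% Tween-20, 50 mM PIPES pH 7.0, heated 40–90 °C at 1 °C/min.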
(In general: Differential scanning fluorimetry follows unfolding on heating by fluorescence.)

For test [3], the system named is CFA-Induced Paw Radiant Heat Hypersensitivity. The test is described as follows: CFA-Induced Paw Radiant Heat Hypersensitivity. The format is in vivo. The note with it: rat, HPβCD; for inhibition in vivo at 10 mg/kg / inhibition in vivo at 30 mg/kg: po, 5 h, group mean values, read-out: Method 1: peak % reversal; for Method 2: peak % reversal: individual animal values. The protocol:
Each rat was placed in a test chamber on a warm glass surface and allowed to acclimate for approximately 10 min. A radiant thermal stimulus (beam of light) was focused through the glass onto the plantar surface of each hind paw in turn. The thermal stimulus was automatically shut off by a photoelectric relay when the paw was moved or when the cut-off time was reached (20 sec for radiant heat at ˜5 amps). An initial (baseline) response latency to the thermal stimulus was recorded for each animal prior to the injection of complete Freund's adjuvant (CFA). Twenty-four hours following intraplantar CFA injection, the response latency of the animal to the thermal stimulus was re-evaluated and compared to the animal's baseline response time. […] Immediately following the post-CFA latency assessment, the indicated test compound or vehicle was administered orally. Post-compound treatment withdrawal latencies were assessed at fixed time intervals, typically 30, 60, 120, 180, and 300 min.
The percent reversal (% R) of hypersensitivity was calculated in one of two different ways:
1) using group mean values or 2) using individual animal values. More specifically:
Method 1. For all compounds, the % R of hypersensitivity was calculated using the mean value for groups of animals at each time point according to the following formula: % reversal=[(group treatment response−group CFA response)/(group baseline response−group CFA response)]×100 Results were given for the maximum % reversal observed for each compound at any time point tested.
Method 2. For some compounds, the % R of hypersensitivity was calculated separately for each animal according to the following formula: % reversal=[(individual treatment response−individual CFA response)/(individual baseline response−individual CFA response)]×100.
Results are given as a mean of the maximum % reversal values calculated for each individual animal.

[4] abbreviates: 10 mg/kg p.o., last time point 300 min.
The mark [5] stands for this setting: 30 mg/kg p.o., last time point 300 min (180 min for Cpd 17, 77).

Molecules are shown by their SMILES. Substitutions are numbered along the chain they refer to. Where only a bound is given, the exact number is not on record here.

For the compound `O=C(c1ccc2c(ccn2-c2ccc(C(F)(F)F)cc2)c1)N1CC(N2CC(N3Cc4ccccc4C3=O)C2)C1` [Cpd 70, 2-[1′-({1-[4-(Trifluoromethyl)phenyl]-1H-indol-5-yl}carbonyl)-1,3′-biazetidin-3-yl]-2,3-dihydro-1H-isoindol-1-one], in test [1], the IC50 (as a rule, the point on the concentration scale where inhibition reaches its midpoint) turned out to be 8 nM. In test [2], the IC50 is below 5 nM. Besides, at MGL, the activity at 1 µM was found to be 483% and the activity at 10 µM turned out to be 736%. In addition, at mutant MGL, binding was characterised by a dissociation constant (Kd) of 3.5 nM. In test [3] (setting [4]), the inhibition in vivo at 10 mg/kg came to 28.2% and the “Method 2: peak % reversal” value came out at 22.5%. Further, in test [3] (setting [5]), the inhibition in vivo at 30 mg/kg was found to be 4.7% and the “Method 2: peak % reversal” value is 5%.
In the case of `Cc1c(C(=O)N2CC(N3CC(NC(=O)c4cscn4)C3)C2)sc2cc(C(F)(F)F)ccc12` [Cpd 67, N-(1′-{[3-Methyl-6-(trifluoromethyl)-1-benzothiophen-2-yl]carbonyl}-1,3′-biazetidin-3-yl)-1,3-thiazole-4-carboxamide], the IC50 in test [2] is below 5 nM. Besides, the activity at 1 µM at MGL was found to be 434%. The affinity at mutant MGL, expressed as Kd, was 10.7 nM. Also, in test [3] (setting [5]), the inhibition in vivo at 30 mg/kg was found to be 35.7%.
In the case of `O=C(c1cc2cc(-c3ccccc3)ccc2s1)N1CC(N2CC(N3Cc4ccccc4C3=O)C2)C1` [Cpd 79, 2-{1′-[(5-Phenyl-1-benzothiophen-2-yl)carbonyl]-1,3′-biazetidin-3-yl}-2,3-dihydro-1H-isoindol-1-one], the IC50 in test [1] worked out at 18 nM. In addition, the IC50 in test [2] was found to be 10 nM. Besides, on MGL, the activity at 1 µM came out at 253% and the activity at 10 µM amounted to 676%. The Kd (usually a measure of binding affinity in units of concentration) on mutant MGL came out at 33.3 nM. Besides, the inhibition in vivo at 30 mg/kg in test [3] (setting [5]) came out at 33.7%.
Take `O=C(NC1CN(C2CN(C(=O)c3ccc4nc(-c5ccccc5)oc4c3)C2)C1)c1nccs1` [Cpd 17, N-{1′-[(2-Phenyl-1,3-benzoxazol-6-yl)carbonyl]-1,3′-biazetidin-3-yl}-1,3-thiazole-2-carboxamide]: the IC50 in test [1] is 48 nM. Further, the IC50 in test [2] was 37 nM. Further, on MGL, the activity at 1 µM is 355% and the activity at 10 µM was 486%. For the same compound, on mutant MGL, binding was put at a Kd of 333 nM. Also, in test [3] (setting [5]), the inhibition in vivo at 30 mg/kg was determined as 27% and the “Method 2: peak % reversal” value was determined as 31.5%.
For the compound `Cc1c(C(=O)N2CC(N3CC(N4Cc5ccccc5C4=O)C3)C2)sc2cc(C(F)(F)F)ccc12` [Cpd 101, 2-(1′-{[3-Methyl-6-(trifluoromethyl)-1-benzothiophen-2-yl]carbonyl}-1,3′-biazetidin-3-yl)-2,3-dihydro-1H-isoindol-1-one], the IC50 in test [2] worked out at 6 nM. Besides, on MGL, the activity at 1 µM turned out to be 534%. The same compound returned a Kd on mutant MGL of 4 nM. Also, in test [3] (setting [5]), the inhibition in vivo at 30 mg/kg came to 6.1%.
Turning to `O=C(NC1CN(C2CN(C(=O)c3ccc(-c4cccc(C(F)(F)F)c4)cc3)C2)C1)c1cscn1` [Cpd 2, N-(1′-{[3′-(Trifluoromethyl)biphenyl-4-yl]carbonyl}-1,3′-biazetidin-3-yl)-1,3-thiazole-4-carboxamide], the IC50 in test [1] worked out at 6 nM; in test [2], 8 nM. Moreover, the activity at 1 µM on MGL stood at 620%. The same compound registered a Kd at mutant MGL of 22 nM. For the same compound, the inhibition in vivo at 30 mg/kg in test [3] (setting [5]) was determined as 47.9%.
In the case of `O=C(NC1CN(C2CN(C(=O)c3ccc4c(ccn4-c4ccc(C(F)(F)F)cc4)c3)C2)C1)c1nccs1` [Cpd 1, N-[1′-({1-[4-(Trifluoromethyl)phenyl]-1H-indol-5-yl}carbonyl)-1,3′-biazetidin-3-yl]-1,3-thiazole-2-carboxamide], the IC50 in test [1] was 5 nM. Further, the IC50 in test [2] is below 5 nM. For the same compound, at MGL, the activity at 1 µM amounted to 370% and the activity at 10 µM is 639%. The compound also came in with a Kd on mutant MGL of 6 nM. Also, in test [3] (setting [4]), the inhibition in vivo at 10 mg/kg is -18.6% and the “Method 2: peak % reversal” value was −19.0%. Besides, in test [3] (setting [5]), the inhibition in vivo at 30 mg/kg worked out at 10.3% and the “Method 2: peak % reversal” value worked out at 7.4%.
For `O=C(c1ccc2oc(-c3ccccc3)nc2c1)N1CC(N2CC(N3Cc4ccccc4C3=O)C2)C1` [Cpd 77, 2-{1′-[(2-Phenyl-1,3-benzoxazol-5-yl)carbonyl]-1,3′-biazetidin-3-yl}-2,3-dihydro-1H-isoindol-1-one], the IC50 in test [1] was 16 nM; in test [2], 31 nM. Moreover, at MGL, the activity at 10 µM was 478%. On mutant MGL, this compound registered a Kd of 100 nM. Further, the inhibition in vivo at 30 mg/kg in test [3] (setting [5]) is 9.9%. The “Method 2: peak % reversal” value in test [3] (setting [5]) is listed as 6.9%.
As to `O=C(NC1CN(C2CN(C(=O)c3ccc(-c4cccc(C(F)(F)F)c4)cc3)C2)C1)c1nccs1` [Cpd 5, N-(1′-{[3′-(Trifluoromethyl)biphenyl-4-yl]carbonyl}-1,3′-biazetidin-3-yl)-1,3-thiazole-2-carboxamide], in test [1], the IC50 turned out to be 7 nM. For the same compound, the IC50 in test [2] is 15 nM. Further, on MGL, the activity at 1 µM amounted to 347% and the activity at 10 µM amounted to 921%. Also, the Kd on mutant MGL was found to be 11.2 nM. In addition, in test [3] (setting [5]), the inhibition in vivo at 30 mg/kg is 57.4% and the “Method 2: peak % reversal” value is recorded as 55.8%.
With `Cc1c(C(=O)N2CC(N3CC(NC(=O)c4nccs4)C3)C2)sc2cc(C(F)(F)F)ccc12` [Cpd 56, N-(1′-{[3-Methyl-6-(trifluoromethyl)-1-benzothiophen-2-yl]carbonyl}-1,3′-biazetidin-3-yl)-1,3-thiazole-2-carboxamide], the IC50 in test [2] was 6 nM. Further, the activity at 1 µM on MGL was 413%. At mutant MGL, this compound showed a Kd of 2.15 nM. Further, the inhibition in vivo at 30 mg/kg in test [3] (setting [5]) was -1.3%.
